Results from patent US20040001818A1, “Methods of inhibiting angiogenesis using NADPH oxidase inhibitors” (priority 2000, published 2004).
Starred links: 1 amine or outer side, 2 acyl side, 3 side chain; linkers in the order of their positions; H or OH if unused. Positions of bridges follow the written chain, without caps; N, C: chain ends. Non-standard residues stand in square brackets, D forms with d. Residues, ends and D or L forms follow the SMILES beside them. Chains are numbered I, II in the order given. Actinocin(9to1) = Cc1c2oc3c(C)ccc(C(=O)[*:1])c3nc-2c(C(=O)[*:2])c(N)c1=O; NMeV = CN[C@H](C(=O)O)C(C)C; Sar = CNCC(=O)O

Legend:
[1] = system: human coronary artery endothelial cells (HCAECs); assay: VEGF-induced chemotaxis of HCAECs, Boyden chamber assay; assay type: cell-based; settings: for inhibition of migration, dose dependence: VEGF 50 ng/ml, DPI 0.5, 1.0, 5.0, 10 μM, AEBSF 5, 50, 100, 250 μM
Description: The capacity of NADPH oxidase inhibitors to block migration of human coronary artery endothelial cells was tested. In these studies, VEGF-induced chemotaxis was tested with the Boyden chamber assay. Human coronary artery endothelial cells were serum starved in 0.5% FBS overnight. 25,000 cells were seeded into the upper chamber in the absence or presence of DPI, while media containing 0.5% FBS and 40 ng/ml was placed into the lower chamber. The chamber was incubated for 4 hours at 37° C., at which time the polycarbonate filters were harvested and counted for migrating cells. The results are shown in FIG. 14, which is a histogram showing the migration in terms of cell count (y-axis) of human coronary artery endothelial cells in a Boyden chamber. The cells were serum starved in 0.5% FBS and treated with either VEGF, DPI or VEGF+DPI (x-axis).
The effect of AEBSF on VEGF-induced migration was also studied. HCAECs were treated as above and treated by either VEGF, VEGF+100 μM allopurinol, or VEGF+250 μM AEBSF. The results are shown in FIG. 15, which is a histogram showing migration in terms of cell count (y-axis) when treated (x-axis). The NADPH oxidase inhibitor AEBSF abrograted the VEGF-mediated chemotaxis of HCAECs.
These are histograms showing VEGF-mediated chemotaxis in control HCAECs (“C”), or HCAECs treated with 50 ng/ml VEGF in the absence or presence of increasing doses of DPI (0.5, 1.0, 5.0 or 10 μM; FIG. 16A) or AEBSF (5, 50, 100 or 250 μM; FIG. 16B).

[2] = system: MnSOD mRNA; assay: Northern blot of MnSOD mRNA in HCAECs; assay type: cell-based, human; settings: for VEGF-mediated induction of MnSOD: serum-starved HCAECs, VEGF 50 ng/ml, four hours, DPI 5, 25, 100 μM, apocynin 0.3, 2, 5 mM, allopurinol 0.1, 0.5 mM; for VEGF stimulation of MnSOD: HCAEC pre-incubated with 1 μM GF-109203X, 50 μM PD98059 or 20 μM SB 203580
Description: Cell culture. Human coronary artery endothelial cells (HCAECs) (Clonetics Corporation, San Diego, Calif., USA) and human pulmonary artery endothelial cells (HPAECs) were grown in Endothelial Growth Medium-2-MV (EGM-2-MV) BulletKit (Clonetics Corporation, San Diego, Calif., USA). At 80-90% confluence, the cells were serum-starved in DMEM containing 0.5% FBS for 24 hours and subsequently treated with VEGF-supplemented medium for the times indicated. Human recombinant VEGF was purchased from PeproTech, Inc. (Rocky Hill, N.J., USA). […] In other studies, the serum-starved cells were pretreated with the MEK inhibitor PD98059 at a final concentration of 50 μM or a specific PKC inhibitor bisindolylmaleimide I (BIM; CalBiochem, San Diego, Calif., USA) at a final concentration of 5 μM for 30 minutes prior to addition of growth factors. An equal amount of DMSO was added to the control plates. Northern blot analyses. Ten micrograms total RNA was loaded on a 0.7% formaldehyde-containing agarose gel. The RNA was transferred to nylon membrane, covalently cross-linked with UV radiation, prehybridized for 6 hours, and hybridized for 18 hours at 42° C. with a [^32P]dCTP-labeled cDNA probe containing MnSOD or eNOS cDNA sequence. The membranes were subsequently stripped and probed with a radiolabeled 18S-ribosome probe. For actinomycin D experiments, HCAEC cells were pretreated with 10 μg/ml actinomycin D (Sigma Chemical Company, St. Louis, Mo., USA) for 30 minutes before addition of VEGF and were harvested for total RNA one hour later.
To determine whether VEGF induced expression of MnSOD in primary endothelial cell cultures, HCAECs and HPAECs were serum starved for 24 hours, treated with 40 ng/ml VEGF for 0, 0.5, 1, 2, 4, 12 and 24 hours, and then harvested for total RNA. Northern blots were performed and probed for human MnSOD. […] The membranes were then stripped and reprobed for eNOS.
To determine whether the response of MnSOD to VEGF was mediated by ROS, HCAECs were serum starved and then treated with VEGF in the absence or presence of inhibitors of NADPH oxidase (DPI, apocynin), xanthine oxidase (allopurinol) and nitric oxide synthase (L-NAME).

[3] = system: human coronary artery endothelial cells (HCAECs); assay: [3H]-thymidine incorporation in HCAECs; assay type: cell-based; settings: for thymidine incorporation: HCAECs grown in 10% FBS
Description: To determine whether the effect of serum or VEGF on endothelial cell proliferation might also be dependent upon ambient levels of ROS, HCAECs were grown to confluence, split into 24 wells, serum starved for eight hours and then incubated in the absence or presence of VEGF for 16 or 24 hours. All wells received 1 μCi of [^3H]-thymidine at the time of treatment. After 16 or 24 hours, medium was removed, and the wells were washed 3 times with PBS. Radioactivity was extracted and thymidine incorporation measured using a scintillation counter.

[4] = system: ROS; assay: ROS generation: DCF oxidation by flow cytometry in DCFDA-labeled HCAECs; assay type: cell-based, human; settings: relative to basal rate of control cells
Description: Western blot analyses. Whole cell protein extracts were prepared from serum-starved HCAECs and HPAECs one hour following addition of growth factor-supplemented or mock-treated media. Cells were washed twice with cold phosphate-buffered saline, harvested with a cell scraper, and lysed in ice-cold lysis buffer containing 20 mM HEPES, pH 7.5, 150 mM NaCl, 1% NP-40, 0.1% SDS, 1 mM EDTA, 1 mM DTT, 0.5 mM phenylmethylsulfonyl fluoride (PMSF), and the protease inhibitor cocktail (Boehringer Mannheim, Mannheim, Germany) for one hour. The resulting lysates were centrifuged at 10,000× g for 20 minutes and the supernatants were saved as whole cell protein extracts. Forty micrograms of protein were separated by 10% SDS-PAGE and electrotransferred to nitrocellulose membranes. Membranes were blocked with 5% nonfat dry milk in Tris-buffered saline with 0.1% Tween 20 for one hour at room temperature. The blot was incubated with primary rabbit polyclonal anti-MnSOD IgG (1:1000 dilution) (Santa Cruz Biotechnology Inc., Santa Cruz, Calif., USA) overnight at 4° C., followed by secondary antibody goat-anti-rabbit horseradish peroxidase conjugate (1:1000 dilution) (Pierce, Rockford, Ill., USA). The blot was washed extensively between each incubation step. Peroxidase activity was visualized with an enhanced chemiluminescense substrate system (Amersham, Arlington Heights, Ill., USA). Membranes were stripped and probed for eNOS and β-actin. Flow cytometry. Endothelial cells were labeled with DCFDA and oxidation of DCF was measured by flow cytometry.
To test whether VEGF increases ROS production in endothelial cells, HCAECs were labeled with […] DCFDA and oxidation of DCF was measured by flow cytometry. […] PMS is known to induce free oxygen radicals.

[5] = system: mouse embryonic fibroblasts; assay: [3H]-thymidine incorporation in primary murine embryonic fibroblasts; assay type: cell-based; settings: 10% FBS, 16 hours
Description: To determine whether the effect of NADPH oxidase inhibition was specific to endothelial cells, the effect of the various inhibitors on thymidine incorporation in primary murine embryonic fibroblasts was tested. The results are shown in FIG. 13, which is a histogram showing thymidine incorporation (y-axis) in mouse embryonic fibroblasts that have been grown in 0.5% FBS or 10% FBS in the absence (10% FBS) or presence of inhibitors (Apo=apocynin; allo=allopurinol; L-NAME) for 16 hours.

[6] = serum starved (0.5% FBS) and VEGF-treated HCAECs, 16 or 24 hours

## c1ccc2c(c1)[I+]c1ccccc1-2 [DPI, diphenyleneiodonium]
[1]; 25 μM DPI, VEGF in lower chamber, 4 hours
  migration (cell count): profound inhibition
[1]
  inhibition of migration, dose dependence: dose-dependent
[2]
  VEGF-mediated induction of MnSOD: inhibited
[3]; HCAECs in 5.0% FBS, doses 1, 5, 25, 40, 80 μM
  DPI concentration inhibiting serum-induced thymidine incorporation: ≤ 1 µM
[3]; [6]
  thymidine uptake: profound inhibition
[4]
  DCF oxidation (ROS production): significantly inhibited

## COS(=O)(=O)[O-].C[n+]1c2ccccc2nc2ccccc21 [PMS]
[4]
  DCF oxidation (ROS production): increased ROS production

## Cc1c2oc3c(C)ccc(C(=O)N[C@@H]4C(=O)N[C@H](C(C)C)C(=O)N5CCC[C@H]5C(=O)N(C)CC(=O)N(C)[C@@H](C(C)C)C(=O)O[C@@H]4C)c3nc-2c(C(=O)N[C@@H]2C(=O)N[C@H](C(C)C)C(=O)N3CCC[C@H]3C(=O)N(C)CC(=O)N(C)[C@@H](C(C)C)C(=O)O[C@@H]2C)c(N)c1=O [Actinomycin D, actinomycin D] (I: T[dV]P[Sar][NMeV] / II: T[dV]P[Sar][NMeV]; ester I:1-I:C, II:1-II:C; linker I:N-II:N via Actinocin(9to1))
[2]; HCAEC, 10 μg/ml actinomycin D for 30 minutes before 60 minute incubation with VEGF
  VEGF-mediated induction of MnSOD mRNA: completely abolished

## C[S+]([O-])c1ccc(-c2nc(-c3ccncc3)c(-c3ccc(F)cc3)[nH]2)cc1 (stereo not shown) [SB 203580]
[2]
  VEGF stimulation of MnSOD: not

## COC(=O)[C@@H](N)CCCNC(=N)N[N+](=O)[O-] [L-NAME]
[3]
  thymidine incorporation: no effect
[4]
  DCF oxidation (ROS production): no effect

## NCCc1ccc(S(=O)(=O)F)cc1 [AEBSF, 4-(2-aminoethyl)-benzenesulfonyl fluoride]
[1]
  inhibition of migration, dose dependence: dose-dependent
[1]; VEGF + 250 μM AEBSF
  VEGF-mediated chemotaxis: abrograted
[2]; pretreatment with the inhibitor, concentration not given
  VEGF-mediated induction of MnSOD mRNA: inhibited
[3]; HCAECs, 5% FBS, AEBSF 5, 50, 100, 500 μM
  thymidine uptake: inhibited

## O=C1c2ccccc2Cc2ccccc21 [anthrone]
[3]; [6]
  thymidine uptake: profound inhibition

## CN(C)CCCn1cc(C2=C(c3c[nH]c4ccccc34)C(=O)NC2=O)c2ccccc21 [BIM, bisindolylmaleimide I]
[2]; preincubation, BIM 0.1, 1, 5 μM, PD98059 5, 20, 100 μM
  VEGF-mediated induction of MnSOD mRNA: inhibited

## CN(C)CCCn1cc(C2=C(c3c[nH]c4ccccc34)C(=O)NC2=O)c2ccccc21 [GF-109203X]
[2]
  VEGF stimulation of MnSOD: significantly reduced

## COc1cccc(-c2cc(=O)c3ccccc3o2)c1N [PD98059]
[2]
  VEGF stimulation of MnSOD: not

## Oc1ncnc2[nH]ncc12 [allopurinol]
[3]
  thymidine incorporation: no effect
[4]
  DCF oxidation (ROS production): no effect

## CCCCCCCCCCCCCC(=O)O[C@@H]1[C@@H](C)[C@@]2(O)[C@@H](C=C(CO)C[C@]3(O)C(=O)C(C)=C[C@@H]23)[C@@H]2C(C)(C)[C@]12OC(C)=O [PMA]
[4]
  DCF oxidation (ROS production): significantly increased

## COc1cc(C(C)=O)ccc1O [apocynin]
[5]
  thymidine incorporation: failed to reduce incorporation below baseline
[2]
  VEGF-mediated induction of MnSOD: inhibited
[3]; HCAECs, 5.0% FBS, apocynin 300 μM, 500 μM, 1 mM, 2 mM, 3 mM
  serum-induced thymidine incorporation: dose-dependent inhibition
